Several values for one entry are separate records, joined by “and”; a condition that tells them apart may be missing. Equal values may be shown once. Read-outs that look alike come from different tables or passages of the source. Starred links: 1 amine or outer side, 2 acyl side, 3 side chain; linkers in the order of their positions; H or OH if unused. Positions of bridges follow the written chain, without caps; N, C: chain ends. Non-standard residues stand in square brackets, D forms with d. Residues, ends and D or L forms follow the SMILES beside them. Adda = CO[C@@H](Cc1ccccc1)[C@@H](C)/C=C(C)/C=C/[C@H](N[*:1])[C@H](C)C(=O)[*:2]; dAsp(3S-Me) = C[C@H](C(=O)[*:3])[C@@H](N[*:1])C(=O)[*:2]; d(γGlu) = O=C(O)[C@@H](CCC(=O)[*:2])N[*:1]; NMeDha = C=C(NC)C(=O)O
Columns and labels:
[1] = test system: NIH3T3 cells; format: cell-based, mouse
[2] = Chlorination of MC-LR, Total MC-LR by HPLC; format: physicochemical; details: pH 7.78
Protocol: (§1) Free chlorine and MC-LR solutions were freshly prepared before each experiment. The initial MC-LR concentration was 2.00×10^−6 mol/L (2.00 mg/L). The pH of MC-LR solutions before addition of chlorine was 7.78. Initial MC-LR decomposition experiments were conducted in unbuffered solutions in order to mitigate against participation of buffers and other inorganic ions in the reactions; pH measurements were not conducted after initiation of the reactions due to limited reaction volumes. In experiments that were designed to examine the effects of pH on MC-LR behavior, 10 mM phosphate buffer was added into MC-LR solution. The pH of solution was adjusted to 6.5, 7.5, and 8.5 by addition of 50 mM sulfuric acid or 100 mM sodium hydroxide.
(§2) […]. […] Pre-chlorinated samples were then collected in headspace-free, gas-tight containers for subsequent UV irradiation at a characteristic wavelength of 254 nm using a flat-plate collimated beam.
(§3) A high-performance liquid chromatography (HPLC) system (Surveyor, Thermo Scientific, FL, U.S.) equipped with an Acclaim PepMap100 C18 column (250 mm×1.0 mm I.D., 5 μm particle size) was used to measure MC-LR concentration (Merel et al., (2009) Chemosphere 74: 832-839). The HPLC mobile phase was CH3CN/H2O/TFA (60:40:0.1). Sample injection volumes were 20 μL with a flow rate of 1.0 mL/min. Detection was performed using a photodiode array at 238 nm. […]

[3] = test system: Hep3B cells; format: cell-based, human
[4] = UV254 photolysis and chlorine/UV process for MC-LR decomposition; format: physicochemical
Protocol: as §1, §2
Incident UV254 irradiance was 1.00×10^−4 W/cm^2, as measured by a calibrated radiometer (IL1700, International Light Technologies, Peabody, Mass., U.S.). UV254 doses applied in the experiments ranged from 0 to 720 mJ/cm^2 for exposure times ranging from 0 to 120 min. The actual UV254 doses delivered to the samples would have been slightly lower than these values because of the effects of reflection and absorbance, which were not accounted for. The collimated beam system used in these experiments has been described previously. Water samples were collected periodically for determination of MC-LR concentration and cytotoxicity, as described below. All experiments were conducted in triplicate and the values were expressed as mean±standard deviation (SD) from the replicate measurements.
as §3, with “(60:40:0.1).” for “(60:40:0.1). Sample injection volumes were 20 μL with a flow rate of 1.0 mL/min. Detection was performed using a photodiode array at 238 nm.”

[5] = cited from earlier work
[6] = 254 nm; cited from earlier work

Row | Molecule | decrease of cell viability [1] | apparent second-order rate constant for chlorination of MC-LR [2] | concentration of MC-LR over time [2] | change of cell viability resulting from UV254 exposure alone [3] | decrease of cell viability [3] | viability of Hep3B cells [3] | relative cell viability of Hep3B ([3]; pH 6.5) | relative cell viability of Hep3B ([3]; pH 8.5) | MC-LR decomposition ([4]; pH 6.5) | photodecay constant (pseudo first-order) ([4]; pH 7.78) | MC-LR decomposition ([4]; pH 8.5) | apparent second-order rate constant for chlorination of MC-LR ([5]; pH 6.1) | apparent second-order rate constant for chlorination of MC-LR ([5]; pH 7) | apparent second-order rate constant for chlorination of MC-LR ([5]; pH 8) | quantum yield Φ254 for photodegradation [6] | molar absorptivity ε254 [6]
1 | C=C1C(=O)N[C@H](C)C(=O)N[C@@H](CC(C)C)C(=O)N[C@@H](C(=O)O)[C@H](C)C(=O)N[C@@H](CCCNC(=N)N)C(=O)N[C@@H](/C=C/C(C)=C/[C@H](C)[C@H](Cc2ccccc2)OC)[C@H](C)C(=O)N[C@@H](C(=O)O)CCC(=O)N1C [MC-LR] (R[Adda][d(γGlu)][NMeDha][dA]L[dAsp(3S-Me)]-OH; lactam N-7) | up to 76% | 44.5 M⁻¹ s⁻¹ | remained essentially constant | modest increase | up to 89% | roughly 50% | 60% | roughly 80% | 64% | 0.000146 s⁻¹ and 0.000169 s⁻¹ and 0.000179 s⁻¹ and 0.000223 s⁻¹ | 83% | 127.8 M⁻¹ s⁻¹ | 91.5 M⁻¹ s⁻¹ | 33.1 M⁻¹ s⁻¹ |  | 
2 | CN1CC(=O)NC1=N [creatinine] |  |  |  |  |  |  |  |  |  |  |  |  |  |  | 0.011±0.002 mol/E | 
3 | N-chloro-creatinine |  |  |  |  |  |  |  |  |  |  |  |  |  |  | 0.144±0.011 mol/E | 3911 M⁻¹ cm⁻¹

— US10662100B2, “Chlorination-UV process for decomposition and detoxification of microcystin-LR” (priority 2016, dated 2020)
